Experimental data reported in US20050106305A1, “Beverage compositions comprising monatin and methods of making same” (Cargill, Inc., priority 2003, published 2005).

Legend:
[1] = Time intensity profile in a soft drink system; format: in vivo; conditions: 80 ppm monatin, 10.0% sucrose, 200 ppm sucralose, pH 3.2 model soft drink
Description: Solutions of 80 ppm monatin (racemic mix of monatin described in Example 14), 10.0% (w/v) sucrose and 200 ppm sucralose were prepared in the pH 3.2 model soft drink system described in Example 14. The time intensity profile of these solutions then was assessed using the following procedure. Six panelists were included in the study. These panelists were screened for their general sensory acuity and selected for their sensitivity to sweetness intensity and sweetness quality differences. All were experienced in methods of sweetener assessment and had received special training in time intensity evaluations. Training sessions were carried out initially to familiarize the panel with the method of evaluation and scoring the samples over time using a computerized data entry system.
Samples of each solution (13 mL) were coded and presented individually to panelists, in random order. For each panelist, immediately after swallowing, the computer recorded timed intensity readings on the scale of 0-100 each second, up to 60 seconds. Each solution was evaluated in duplicate.

[2] = Sensory stability of monatin in water; format: physicochemical
Description: The sensory stability of monatin (racemic mix described in Example 14) in water (8% SEV) was studied after storage at room temperature for 0 to 6 hours. The SEV was monitored (as described above in Example 14) at either 0-1 hours or 5-6 hours after preparing a monatin solution.

[3] = Equisweet blends of monatin with carbohydrate sweeteners (parity to 10.0% sucrose); format: in vivo; conditions: for Effective Relative Sweetness Intensity (x sucrose) of Monatin: blend with sucrose equisweet to 10.0% sucrose
Description: Blends of monatin (as described in Example 14) with sucrose, HFCS (55% fructose), and glucose syrup (63 dextrose equivalents, DE) equisweet to 10.0% (w/v) sucrose were prepared. For each carbohydrate sweetener, the monatin:sweetener ratio was adjusted so that monatin delivered 25, 50, and 75% of the total sweetness. Sweetness parity to 10.0% (w/v) sucrose was determined using the sweetness estimation method described in Example 14. As in Example 14, all assessments were carried out in the pH 3.2 model soft drink system, using 6-8 panelists, each tasting in duplicate. Results are presented as Tables 7-9.

[4] = Monatin dose response, sweetness estimation in pH 3.2 model soft drink system; format: in vivo; conditions: for SEV: pH 3.2 model soft drink system
Description: Solutions of monatin (mixture of approximately 96% of the 2R,4R/2S, 4S enantiometric pair and 4% of the 2R,4S/2S,4R enantiometric pair-also called “racemic mix” of monatin”) at 15, 30, 45, 60, 75 and 90 ppm were prepared in a pH 3.2 model soft drink system that contained 0.14% (w/v) citric acid and 0.04% (w/v) sodium citrate. The sweetness of monatin relative to sucrose was determined using the sweetness estimation methodology described below. All assessments were carried out in duplicate by a panel (n=6-8) of trained panelists experienced in this sweetness determination procedure. All samples were served at a temperature of 20° C. ±1° C.
Monatin solutions were coded and presented individually to panelists, in random order. Sucrose reference standards, ranging from 2.0-11.0% (w/v) sucrose, increasing in steps of 0.5% (w/v) sucrose also were provided. Panelists were asked to estimate sweetness by comparing the sweetness of the test solution to the sucrose standards. This was carried out by taking 3 sips of the test solution, followed by a sip of water, followed by 3 sips of sucrose standard followed by a sip of water, etc. Panelists were encouraged to estimate the sweetness to one decimal place, e.g., 6.8, 8.5. A five minute rest period was imposed between evaluating the test solutions. Panelists also were asked to rinse well and eat a cracker to reduce any potential carry over effects.

[5] = Stability when exposed to ultra violet (UV) light; format: physicochemical; conditions: phosphoric/citrate buffer at pH 3.0, ambient temperature; data not shown
From the text: UV instability can be accelerated by certain flavor systems. UV-absorbing packaging material, colorants and/or antioxidants can protect against UV light-induced flavor interactions in monatin-containing beverages.

[6] = Stability of monatin at pH 3 with increasing temperatures; format: physicochemical
Description: A sample of synthetic monatin was subjected to pH 3 at temperatures of 25° C., 50° C. and 100° C. At room temperature and pH 3, a 14% loss in monatin was observed over a period of 48 hours. This loss was attributed to lactone formation. At 50° C. and pH 3, a 23% loss in monatin was observed over a period of 48 hours. This loss was attributed to lactone formation and the buildup of an unknown compound after about 15.5 minutes. […] The major detectable component was an unknown at 15.5 minutes.

[7] = Sweetness dose response of monatin and saccharin, model system pH 3.2; format: in vivo
Description: Sweetness of monatin and saccharin was assessed using 20 trained sensory evaluators, making judgements in duplicate. Test and reference solutions were prepared in citric/citrate buffer at pH 3.2. […] The plateau above 10% SEV indicates absence/low levels of “mixture-suppressing” off-tastes and aftertastes. The shape of monatin's dose-response curve is similar to those of aspartame, sucralose and alitame, all of which are “quality” sweeteners.

[8] = sole sweetener in the model system (pH 3.2)

NC(CC(O)(Cc1c[nH]c2ccccc12)C(=O)O)C(=O)O (racemic) [Monatin, 2-hydroxy-2-(indol-3-ylmethyl)-4-aminoglutaric acid]
Area Under Curve [1]: 117.3 unit × s | Rate of Decline [1]: 2.2 unit/s | Rate of Onset [1]: 14.9 unit/s | Time for Sweetness to Decline to Half Maximum Value [1]: 34.2 s | Time to Half Maximum Sweetness [1]: 2.4 s | Time to Maximum Sweetness [1]: 9.0 s | Intensity of Maximum Sweetness ([1]; scale 0-100): 66.6 unit | loss of monatin SEV ([2]; 8% SEV, after 6 hours in room temperature): no detectable loss | lactonization (LC/MS) ([2]; room temperature, 0 to 6 hours): no lactonization | Effective Relative Sweetness Intensity (x sucrose) of Monatin ([3]; sweetness contribution of monatin 25%, sucrose 7.5%, monatin 12.3 ppm): 2000 x sucrose | Effective Relative Sweetness Intensity (x sucrose) of Monatin ([3]; sweetness contribution of monatin 50%, sucrose 5.0%, monatin 30.8 ppm): 1600 x sucrose | Effective Relative Sweetness Intensity (x sucrose) of Monatin ([3]; sweetness contribution of monatin 75%, sucrose 2.5%, monatin 50.3 ppm): 1500 x sucrose | sweetness intensity when blended with carbohydrate sweeteners ([3]; blended with carbohydrate sweeteners): 1500-2000 × sucrose | SEV ([4]; Monatin Conc. 15 ppm): 3.6 %; w/v | SEV ([4]; Monatin Conc. 30 ppm): 4.9 %; w/v | SEV ([4]; Monatin Conc. 45 ppm): 7.1 %; w/v | SEV ([4]; Monatin Conc. 60 ppm): 8.5 %; w/v | SEV ([4]; Monatin Conc. 75 ppm): 9.8 %; w/v | SEV ([4]; Monatin Conc. 90 ppm): 10.5 %; w/v | relative sweetness intensity ([4]; at 10.0% (w/v) SEV, blend of monatin stereoisomers (racemic mix)): 1250 × sweeter than sucrose | stability when exposed to ultra violet (UV) light [5]: similarly stable or slightly more stable than aspartame | loss in monatin ([6]; 50° C. and pH 3, over 48 hours): 23% | loss in monatin ([6]; 100° C. and pH 3, after 24 hours): nearly all monatin was lost | loss in monatin ([6]; room temperature (25° C.) and pH 3, over 48 hours): 14% | Aftertaste [7, 8]: slight “aspartame-like” aftertaste | sweet taste decay [7, 8]: quite rapid | sweet taste onset [7, 8]: slight delay | cooling sensation ([7]; sole sweetener, un-flavored systems (pH 3.2)): residual cooling sensation
